Read-outs that look alike come from different tables or passages of the source.
Assays:
Test in all cases: Test C pre/postemergence
Type in all cases: in vivo
kochia (Kochia scoparia) = conditions: Bassia scoparia, pre-emergence, Preemergence, scale 0 to 100, read-out: Plant response rating, Kochia
Outline: (§1)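 Rating scale 0–100: 0 means no effect, 100 complete control; taken visually 12 to 14 days post-treatment versus controls. Pre- and postemergence greenhouse applications, postemergence at 1- to 4-leaf stage, non-phytotoxic solvent with surfactant as carrier.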

[1] = system: giant foxtail (Setaria faberii); conditions: Setaria faberi; for pest or weed control at 125 g/ha: 125 g ai/ha; for pest or weed control at 500 g/ha: 500 g ai/ha; for pest or weed control at 62 g/ha: 62 g ai/ha; for pest or weed control at 250 g/ha: 250 g ai/ha
Outline: as §1

[2] = system: crabgrass (Digitaria sanguinalis); conditions: Digitaria sanguinalis; for pest or weed control at 62 g/ha: 62 g ai/ha; for pest or weed control at 125 g/ha: 125 g ai/ha; for pest or weed control at 250 g/ha: 250 g ai/ha; for pest or weed control at 500 g/ha: 500 g ai/ha
Outline: as §1

[3] = system: johnsongrass (Sorghum halepense); conditions: Sorghum halepense; for pest or weed control at 62 g/ha: 62 g ai/ha; for pest or weed control at 125 g/ha: 125 g ai/ha; for pest or weed control at 250 g/ha: 250 g ai/ha; for pest or weed control at 500 g/ha: 500 g ai/ha
Outline: as §1

[4] = system: morningglory (Ipomoea coccinea); conditions: Ipomoea; for pest or weed control at 62 g/ha: 62 g ai/ha; for pest or weed control at 125 g/ha: 125 g ai/ha; for pest or weed control at 250 g/ha: 250 g ai/ha; for pest or weed control at 500 g/ha: 500 g ai/ha
Outline: as §1

[5] = system: common (oilseed) sunflower (Helianthus annuus); conditions: Helianthus annuus, pre-emergence, Preemergence, read-out: Plant response rating, Sunflower
Outline: as §1

[6] = system: bermudagrass (Cynodon dactylon); conditions: Cynodon dactylon; for pest or weed control at 62 g/ha: 62 g ai/ha; for pest or weed control at 125 g/ha: 125 g ai/ha; for pest or weed control at 125 g/ha / pest or weed control at 250 g/ha / pest or weed control at 500 g/ha: scale 0 to 100; for pest or weed control at 250 g/ha: 250 g ai/ha; for pest or weed control at 500 g/ha: 500 g ai/ha
Outline: as §1

[7] = post-emergence, Postemergence, scale 0 to 100 (0 no effect, 100 complete control), read-out: Foxtail, Giant plant response rating
[8] = post-emergence, Postemergence, scale 0 to 100, read-out: Plant response rating, Foxtail, Giant
[9] = pre-emergence, Preemergence, scale 0 to 100, read-out: Plant response rating, Foxtail, Giant
[10] = post-emergence, Postemergence, scale 0 to 100 (0 no effect, 100 complete control), read-out: Crabgrass plant response rating
[11] = post-emergence, Postemergence, scale 0 to 100, read-out: Plant response rating, Crabgrass
[12] = pre-emergence, Preemergence, scale 0 to 100, read-out: Plant response rating, Crabgrass
[13] = post-emergence, Postemergence, scale 0 to 100 (0 no effect, 100 complete control), read-out: Johnsongrass plant response rating
[14] = post-emergence, Postemergence, scale 0 to 100, read-out: Plant response rating, Johnsongrass
[15] = pre-emergence, Preemergence, scale 0 to 100, read-out: Plant response rating, Johnsongrass
[16] = post-emergence, Postemergence, scale 0 to 100 (0 no effect, 100 complete control), read-out: Morningglory plant response rating
[17] = post-emergence, Postemergence, scale 0 to 100, read-out: Plant response rating, Morningglory
[18] = pre-emergence, Preemergence, scale 0 to 100, read-out: Plant response rating, Morningglory
[19] = post-emergence, Postemergence, read-out: Plant response rating, Bermudagrass
[20] = pre-emergence, Preemergence, read-out: Plant response rating, Bermudagrass

`Nc1nc(C2CC2)nc(C(=O)O)c1Br` [Compound 8] gave a pest or weed control at 250 g/ha (kochia (Kochia scoparia); 250 g ai/ha) of 100%, a pest or weed control at 500 g/ha (kochia (Kochia scoparia); 500 g ai/ha) of 100% and a pest or weed control at 125 g/ha [1, 7] of 60%. For the same compound, the pest or weed control at 500 g/ha [1, 8] was 75%, the pest or weed control at 62 g/ha [1, 7] was 40% and the pest or weed control at 250 g/ha [1, 8] was 70%. The pest or weed control at 62 g/ha ([1]; pre-emergence, Preemergence, scale 0 to 100, 0 no effect, 100 complete control, read-out: Plant response rating, Foxtail, Giant) was 0%, the pest or weed control at 125 g/ha [1, 9] was 0% and the pest or weed control at 250 g/ha [1, 9] was 0%. It also gave a pest or weed control at 500 g/ha [1, 9] of 0%, a pest or weed control at 62 g/ha [2, 10] of 60% and a pest or weed control at 125 g/ha [2, 10] of 65%. The pest or weed control at 250 g/ha [2, 11] was 70%, the pest or weed control at 500 g/ha [2, 11] was 75% and the pest or weed control at 62 g/ha ([2]; pre-emergence, Preemergence, scale 0 to 100, 0 no effect, 100 complete control, read-out: Plant response rating, Crabgrass) was 0%. It also gave a pest or weed control at 125 g/ha [2, 12] of 0%, a pest or weed control at 250 g/ha [2, 12] of 0% and a pest or weed control at 500 g/ha [2, 12] of 0%. The pest or weed control at 62 g/ha [3, 13] was 30%, the pest or weed control at 125 g/ha [3, 13] was 35% and the pest or weed control at 250 g/ha [3, 14] was 45%. For the same compound, the pest or weed control at 500 g/ha [3, 14] was 85%, the pest or weed control at 62 g/ha ([3]; pre-emergence, Preemergence, scale 0 to 100, 0 no effect, 100 complete control, read-out: Plant response rating, Johnsongrass) was 0% and the pest or weed control at 125 g/ha [3, 15] was 0%. The pest or weed control at 250 g/ha [3, 15] was 0%, the pest or weed control at 500 g/ha [3, 15] was 20% and the pest or weed control at 62 g/ha [4, 16] was 95%. For the same compound, the pest or weed control at 125 g/ha [4, 16] was 95%, the pest or weed control at 250 g/ha [4, 17] was 100% and the pest or weed control at 500 g/ha [4, 17] was 100%. The pest or weed control at 62 g/ha ([4]; pre-emergence, Preemergence, scale 0 to 100, 0 no effect, 100 complete control, read-out: Plant response rating, Morningglory) was 20%, the pest or weed control at 125 g/ha [4, 18] was 100% and the pest or weed control at 250 g/ha [4, 18] was 100%. The pest or weed control at 500 g/ha [4, 18] was 100%, the pest or weed control at 62 g/ha ([5]; 62 g ai/ha, scale 0 to 100, 0 no effect, 100 complete control) was 20% and the pest or weed control at 125 g/ha ([5]; 125 g ai/ha, scale 0 to 100) was 40%. The pest or weed control at 250 g/ha ([5]; 250 g ai/ha, scale 0 to 100) was 100%, the pest or weed control at 500 g/ha ([5]; 500 g ai/ha, scale 0 to 100) was 100% and the pest or weed control at 62 g/ha ([6]; post-emergence, Postemergence, scale 0 to 100 (0 no effect, 100 complete control), read-out: Bermudagrass plant response rating) was 50%. The pest or weed control at 125 g/ha [6, 19] was 60%, the pest or weed control at 250 g/ha [6, 19] was 65% and the pest or weed control at 500 g/ha [6, 19] was 75%. The pest or weed control at 62 g/ha ([6]; pre-emergence, Preemergence, scale 0 to 100, 0 no effect, 100 complete control, read-out: Plant response rating, Bermudagrass) was 100%, the pest or weed control at 125 g/ha [6, 20] was 100% and the pest or weed control at 250 g/ha [6, 20] was 100%. For the same compound, the pest or weed control at 500 g/ha [6, 20] was 100%.

— patent US8802597B2, “Herbicidal pyrimidines” (E I du Pont de Nemours and Company, priority 2003, dated 2014)
